As usually defined, the Ki is a measure of affinity in units of concentration, obtained from inhibition or displacement. A higher Ki goes with lower affinity.

Ki data for one molecule are collected here from publication doi:10.1101/2024.10.12.618019v1 (biorxiv, 2024).

Targets include 5HT1D (Homo sapiens, UniProt P28221); D5 (Homo sapiens, UniProt P21918); D2 (Homo sapiens, UniProt P14416); SERT (Homo sapiens, UniProt P31645); 5HT7A (Homo sapiens, UniProt P34969); 5HT5A (Homo sapiens, UniProt P47898); 5HT6 (Homo sapiens, UniProt P50406); 5HT1B (Homo sapiens, UniProt P28222); NOP (Homo sapiens, UniProt P41146); H1 (Homo sapiens, UniProt P35367); DAT (Homo sapiens, UniProt Q01959); 5HT2B (Homo sapiens, UniProt P41595); D3 (Homo sapiens, UniProt P35462); 5HT1E (Homo sapiens, UniProt P28566); H4 (Homo sapiens, UniProt Q9H3N8); D1 (Homo sapiens, UniProt P21728); 5HT2A (Homo sapiens, UniProt P28223).

What all share (assay): biochemical
For another experiment, the target named is T1, D4 (Homo sapiens, UniProt P21917).
T1 sequence (P21917 1-419): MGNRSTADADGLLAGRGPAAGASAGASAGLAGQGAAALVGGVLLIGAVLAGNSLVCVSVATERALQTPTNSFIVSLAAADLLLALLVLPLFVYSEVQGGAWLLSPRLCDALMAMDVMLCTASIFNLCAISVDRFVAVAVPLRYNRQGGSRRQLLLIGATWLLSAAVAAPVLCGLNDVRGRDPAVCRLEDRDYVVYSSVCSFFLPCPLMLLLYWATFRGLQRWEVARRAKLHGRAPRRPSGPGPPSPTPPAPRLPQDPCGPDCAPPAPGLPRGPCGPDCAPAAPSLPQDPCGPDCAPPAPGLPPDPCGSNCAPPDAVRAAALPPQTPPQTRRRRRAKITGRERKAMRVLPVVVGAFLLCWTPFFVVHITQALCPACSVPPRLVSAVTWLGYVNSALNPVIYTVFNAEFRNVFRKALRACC

In a further experiment the target is T2, 5HT2C (Homo sapiens, UniProt P28335).
T2 sequence (P28335 1-458): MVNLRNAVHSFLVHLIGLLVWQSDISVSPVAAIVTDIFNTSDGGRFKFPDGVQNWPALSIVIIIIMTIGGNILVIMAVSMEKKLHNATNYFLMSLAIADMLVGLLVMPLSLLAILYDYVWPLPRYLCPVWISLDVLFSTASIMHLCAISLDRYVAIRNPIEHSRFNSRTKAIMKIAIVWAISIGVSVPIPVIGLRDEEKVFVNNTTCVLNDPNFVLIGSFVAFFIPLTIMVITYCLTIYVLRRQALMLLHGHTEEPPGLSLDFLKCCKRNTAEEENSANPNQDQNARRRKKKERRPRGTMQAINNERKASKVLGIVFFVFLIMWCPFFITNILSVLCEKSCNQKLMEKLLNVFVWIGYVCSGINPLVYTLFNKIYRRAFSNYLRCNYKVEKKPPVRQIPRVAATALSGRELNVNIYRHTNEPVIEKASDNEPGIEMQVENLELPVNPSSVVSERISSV

In a further experiment the target is T3, 5HT3 (Homo sapiens, UniProt P46098).
T3 sequence (P46098 1-478): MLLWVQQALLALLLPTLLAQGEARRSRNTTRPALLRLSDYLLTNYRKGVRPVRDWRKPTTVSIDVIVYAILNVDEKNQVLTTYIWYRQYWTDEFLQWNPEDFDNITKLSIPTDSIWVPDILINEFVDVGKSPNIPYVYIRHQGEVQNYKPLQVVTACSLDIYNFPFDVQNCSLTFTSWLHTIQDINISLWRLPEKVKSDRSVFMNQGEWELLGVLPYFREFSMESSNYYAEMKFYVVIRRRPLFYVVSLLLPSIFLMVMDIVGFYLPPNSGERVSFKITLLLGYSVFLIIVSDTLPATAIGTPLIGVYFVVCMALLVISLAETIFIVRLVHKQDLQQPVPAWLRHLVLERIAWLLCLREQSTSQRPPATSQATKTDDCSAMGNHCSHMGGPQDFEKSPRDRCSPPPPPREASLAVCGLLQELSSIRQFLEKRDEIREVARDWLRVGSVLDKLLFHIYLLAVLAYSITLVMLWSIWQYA

For another experiment, the target named is T4, 5HT1A (Homo sapiens, UniProt P08908).
T4 sequence (P08908 1-422): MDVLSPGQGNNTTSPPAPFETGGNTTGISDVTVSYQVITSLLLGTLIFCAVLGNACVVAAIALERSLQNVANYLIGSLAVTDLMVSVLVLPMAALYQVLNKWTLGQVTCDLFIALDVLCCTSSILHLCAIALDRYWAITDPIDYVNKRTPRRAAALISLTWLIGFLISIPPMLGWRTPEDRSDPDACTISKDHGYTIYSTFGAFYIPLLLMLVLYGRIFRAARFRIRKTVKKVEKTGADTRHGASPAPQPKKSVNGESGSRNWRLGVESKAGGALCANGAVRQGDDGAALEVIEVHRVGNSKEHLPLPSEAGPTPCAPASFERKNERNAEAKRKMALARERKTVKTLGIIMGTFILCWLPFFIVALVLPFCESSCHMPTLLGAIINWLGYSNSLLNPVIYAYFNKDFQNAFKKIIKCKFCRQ

Sequence of H4 (Q9H3N8 whole entry): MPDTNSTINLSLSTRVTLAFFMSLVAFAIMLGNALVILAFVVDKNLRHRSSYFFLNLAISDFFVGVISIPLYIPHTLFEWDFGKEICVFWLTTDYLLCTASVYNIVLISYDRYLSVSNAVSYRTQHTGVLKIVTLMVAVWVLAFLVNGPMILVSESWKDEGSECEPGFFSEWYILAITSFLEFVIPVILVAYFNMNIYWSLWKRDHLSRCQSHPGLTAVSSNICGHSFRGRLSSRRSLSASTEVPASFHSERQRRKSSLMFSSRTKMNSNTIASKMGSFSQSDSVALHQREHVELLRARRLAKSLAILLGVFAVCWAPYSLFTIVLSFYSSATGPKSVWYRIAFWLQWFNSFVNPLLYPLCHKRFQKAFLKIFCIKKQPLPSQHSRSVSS
Sequence of 5HT1E (P28566 whole entry): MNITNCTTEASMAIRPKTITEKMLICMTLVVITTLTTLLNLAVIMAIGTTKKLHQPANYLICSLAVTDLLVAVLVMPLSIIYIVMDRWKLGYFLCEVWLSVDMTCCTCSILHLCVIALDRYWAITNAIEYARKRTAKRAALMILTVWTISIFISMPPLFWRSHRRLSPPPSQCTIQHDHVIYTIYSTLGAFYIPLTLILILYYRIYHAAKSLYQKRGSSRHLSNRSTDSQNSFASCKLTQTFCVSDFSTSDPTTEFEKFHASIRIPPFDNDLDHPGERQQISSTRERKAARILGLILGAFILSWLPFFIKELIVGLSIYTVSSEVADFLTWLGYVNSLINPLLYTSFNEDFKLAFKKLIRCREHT
Sequence of 5HT5A (P47898 whole entry): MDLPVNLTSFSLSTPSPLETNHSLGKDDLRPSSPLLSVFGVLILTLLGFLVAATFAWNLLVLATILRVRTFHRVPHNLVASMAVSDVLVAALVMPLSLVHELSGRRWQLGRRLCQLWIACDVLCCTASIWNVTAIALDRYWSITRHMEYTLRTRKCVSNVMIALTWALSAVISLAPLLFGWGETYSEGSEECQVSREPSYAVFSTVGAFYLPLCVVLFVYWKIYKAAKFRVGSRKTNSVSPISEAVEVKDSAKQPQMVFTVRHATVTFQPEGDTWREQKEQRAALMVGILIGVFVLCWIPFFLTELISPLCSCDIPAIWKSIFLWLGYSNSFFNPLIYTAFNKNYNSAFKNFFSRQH
Sequence of 5HT1B (P28222 whole entry): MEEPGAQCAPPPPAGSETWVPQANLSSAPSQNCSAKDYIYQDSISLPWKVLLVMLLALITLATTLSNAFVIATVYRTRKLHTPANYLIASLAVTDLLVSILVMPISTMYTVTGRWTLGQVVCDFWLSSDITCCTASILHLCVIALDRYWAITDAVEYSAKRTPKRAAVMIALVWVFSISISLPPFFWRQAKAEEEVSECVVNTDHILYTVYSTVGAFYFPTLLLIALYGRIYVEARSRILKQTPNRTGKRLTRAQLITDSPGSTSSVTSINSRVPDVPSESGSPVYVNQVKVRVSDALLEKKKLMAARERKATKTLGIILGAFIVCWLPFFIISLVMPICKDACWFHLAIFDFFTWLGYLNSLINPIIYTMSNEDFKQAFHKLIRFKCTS
Sequence of NOP (P41146 whole entry): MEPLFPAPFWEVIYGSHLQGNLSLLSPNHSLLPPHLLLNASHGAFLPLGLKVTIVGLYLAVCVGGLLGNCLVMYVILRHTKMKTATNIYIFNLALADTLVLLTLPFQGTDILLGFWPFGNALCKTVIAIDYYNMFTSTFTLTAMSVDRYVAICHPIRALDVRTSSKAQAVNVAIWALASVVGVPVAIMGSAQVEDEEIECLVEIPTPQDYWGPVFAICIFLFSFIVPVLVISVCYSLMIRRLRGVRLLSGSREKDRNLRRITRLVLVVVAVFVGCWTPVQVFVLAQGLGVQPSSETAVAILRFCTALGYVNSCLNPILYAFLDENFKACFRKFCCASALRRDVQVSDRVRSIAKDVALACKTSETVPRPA
Sequence of 5HT1D (P28221 whole entry): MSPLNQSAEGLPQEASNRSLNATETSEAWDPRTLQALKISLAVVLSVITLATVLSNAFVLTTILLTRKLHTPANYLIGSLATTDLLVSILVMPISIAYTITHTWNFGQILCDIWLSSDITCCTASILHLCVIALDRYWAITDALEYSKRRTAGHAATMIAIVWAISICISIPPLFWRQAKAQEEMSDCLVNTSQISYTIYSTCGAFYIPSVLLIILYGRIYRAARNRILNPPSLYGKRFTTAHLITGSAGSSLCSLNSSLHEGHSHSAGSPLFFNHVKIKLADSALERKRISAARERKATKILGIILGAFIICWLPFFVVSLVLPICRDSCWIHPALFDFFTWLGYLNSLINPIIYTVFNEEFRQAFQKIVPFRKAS
Sequence of D3 (P35462 whole entry): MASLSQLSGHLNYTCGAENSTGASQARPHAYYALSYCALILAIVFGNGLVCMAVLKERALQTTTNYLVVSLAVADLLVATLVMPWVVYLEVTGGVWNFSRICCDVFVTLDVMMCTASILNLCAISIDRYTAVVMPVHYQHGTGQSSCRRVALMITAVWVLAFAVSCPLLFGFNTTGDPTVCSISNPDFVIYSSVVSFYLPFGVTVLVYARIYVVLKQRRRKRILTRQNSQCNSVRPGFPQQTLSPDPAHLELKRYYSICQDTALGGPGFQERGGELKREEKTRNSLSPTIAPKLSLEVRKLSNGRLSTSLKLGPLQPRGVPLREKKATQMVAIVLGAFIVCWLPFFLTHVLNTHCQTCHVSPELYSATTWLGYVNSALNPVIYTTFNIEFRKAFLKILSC
Sequence of 5HT7A (P34969 whole entry): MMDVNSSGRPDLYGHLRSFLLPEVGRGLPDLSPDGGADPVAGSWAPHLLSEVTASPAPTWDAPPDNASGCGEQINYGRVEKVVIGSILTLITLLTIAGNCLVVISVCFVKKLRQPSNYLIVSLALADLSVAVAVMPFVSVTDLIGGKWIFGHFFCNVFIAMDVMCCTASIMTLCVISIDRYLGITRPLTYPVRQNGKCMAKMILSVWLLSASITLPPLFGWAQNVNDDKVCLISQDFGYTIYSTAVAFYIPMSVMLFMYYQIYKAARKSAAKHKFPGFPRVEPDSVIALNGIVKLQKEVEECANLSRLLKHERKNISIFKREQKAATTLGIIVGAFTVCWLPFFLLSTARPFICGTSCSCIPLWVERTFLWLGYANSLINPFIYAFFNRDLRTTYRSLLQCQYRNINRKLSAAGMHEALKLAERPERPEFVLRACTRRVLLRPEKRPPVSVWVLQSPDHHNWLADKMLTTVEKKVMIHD
Sequence of H1 (P35367 whole entry): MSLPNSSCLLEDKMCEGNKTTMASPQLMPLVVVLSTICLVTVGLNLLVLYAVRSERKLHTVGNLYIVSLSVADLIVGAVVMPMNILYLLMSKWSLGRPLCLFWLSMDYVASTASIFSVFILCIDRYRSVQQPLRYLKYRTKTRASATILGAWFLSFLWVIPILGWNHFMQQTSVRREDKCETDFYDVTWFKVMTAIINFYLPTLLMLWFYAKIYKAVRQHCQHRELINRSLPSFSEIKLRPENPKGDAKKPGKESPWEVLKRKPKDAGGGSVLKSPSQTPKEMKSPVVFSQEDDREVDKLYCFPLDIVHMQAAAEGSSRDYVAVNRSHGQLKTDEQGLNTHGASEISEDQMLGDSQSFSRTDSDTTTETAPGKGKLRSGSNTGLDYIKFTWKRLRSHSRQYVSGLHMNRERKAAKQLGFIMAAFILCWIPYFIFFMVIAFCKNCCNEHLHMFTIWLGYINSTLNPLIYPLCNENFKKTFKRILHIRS
Sequence of 5HT6 (P50406 whole entry): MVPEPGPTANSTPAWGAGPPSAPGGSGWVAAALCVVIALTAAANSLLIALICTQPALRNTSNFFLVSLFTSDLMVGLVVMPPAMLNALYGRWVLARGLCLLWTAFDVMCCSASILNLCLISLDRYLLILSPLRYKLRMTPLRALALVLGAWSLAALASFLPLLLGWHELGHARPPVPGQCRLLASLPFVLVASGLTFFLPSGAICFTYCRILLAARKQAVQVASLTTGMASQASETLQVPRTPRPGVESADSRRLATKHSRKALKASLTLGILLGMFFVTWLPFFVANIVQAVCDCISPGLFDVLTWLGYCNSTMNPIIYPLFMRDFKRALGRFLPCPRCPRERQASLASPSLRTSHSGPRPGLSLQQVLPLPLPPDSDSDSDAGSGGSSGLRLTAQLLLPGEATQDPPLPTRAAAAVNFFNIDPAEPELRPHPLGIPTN
Sequence of 5HT2A (P28223 whole entry): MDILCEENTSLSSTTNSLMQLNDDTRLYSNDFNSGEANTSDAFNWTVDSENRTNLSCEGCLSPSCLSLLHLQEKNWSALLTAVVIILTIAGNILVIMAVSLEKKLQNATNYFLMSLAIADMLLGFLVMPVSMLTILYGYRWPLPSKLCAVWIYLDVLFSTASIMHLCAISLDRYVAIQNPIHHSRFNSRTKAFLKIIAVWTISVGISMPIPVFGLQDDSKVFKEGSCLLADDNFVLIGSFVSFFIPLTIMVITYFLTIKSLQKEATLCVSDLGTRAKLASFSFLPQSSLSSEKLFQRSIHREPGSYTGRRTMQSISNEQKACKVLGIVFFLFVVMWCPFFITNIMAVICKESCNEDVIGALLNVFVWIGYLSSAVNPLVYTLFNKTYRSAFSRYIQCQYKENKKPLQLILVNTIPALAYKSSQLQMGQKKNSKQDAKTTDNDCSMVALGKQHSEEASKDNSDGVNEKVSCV

Regarding `Cc1cc(-c2ccc(CNC3Cc4ccccc4C3)c(F)c2)cc(-c2ncn[nH]2)c1` [5A], the Ki is 1.42 µM at 5HT1D; above 10 µM at D5; above 10 µM at D2; 5.5 µM on D4; 0.116 µM at SERT; 0.707 µM at 5HT7A. For the same molecule, the inhibition constant Ki at 5HT5A is 8.04 µM; at 5HT6, above 10 µM; on 5HT2C it was above 10 µM; at 5HT1B it was 3.48 µM; at NOP, 0.56 µM; at H1, 6.18 µM. The Ki at DAT was 0.303 µM; at 5HT2B it was 0.948 µM; on 5HT3, above 10 µM; at 5HT1A it was above 10 µM; on D3 it was 0.181 µM; on 5HT1E, above 10 µM. For the same molecule, the Ki at H4 was above 10 µM; on D1 it was 1.27 µM; at 5HT2A, 1.02 µM.
